The text below walks through data of US6989386B2, “Pharmaceutically active ornithine derivatives, ammonium salts thereof and methods of making same” (Dana-Farber Cancer Institute, priority 2002, dated 2006).

Series [1] has as its target T1, dihydrofolate reductase (DHFR) (Mus musculus, UniProt P00375).
T1 sequence (P00375 1-187): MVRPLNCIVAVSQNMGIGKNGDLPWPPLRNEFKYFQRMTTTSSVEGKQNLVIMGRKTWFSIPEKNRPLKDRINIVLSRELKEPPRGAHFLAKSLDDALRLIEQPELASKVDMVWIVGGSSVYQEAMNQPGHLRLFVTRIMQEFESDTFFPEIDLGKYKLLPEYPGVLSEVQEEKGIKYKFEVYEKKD
Particulars: reported, Rosowsky et al., J. Med. Chem. 1986; cited from earlier work.

Series [2] deals with cell growth in culture. The settings on record: reported, Rosowsky et al., J. Med. Chem. 1986; cited from earlier work.
Series [3] concerns folylpolyglutamate synthetase (FPGS). Particulars: reported, Rosowsky et al., J. Med. Chem. 1986; cited from earlier work.

As for `NCCC[C@H](NC(=O)c1ccc(NCc2cnc3nc(N)nc(N)c3n2)cc1)C(=O)O` [APA-L-Orn, N^α-(4-amino-4-deoxypteroyl)-L-ornithine], the “Inhibition of dihydrofolate reductase (DHFR)” value in series [1] is given as “potent inhibitor”. In addition, the “Inhibition of cell growth in culture” value in series [2] is “relatively inactive”. Besides, the “Inhibition of folylpolyglutamate synthetase (FPGS)” value in series [3] is reported as “potent inhibitor”.
For `Nc1nc(N)c2nc(CNc3ccc(C(=O)N[C@@H](CCCNC(=O)c4ccccc4C(=O)O)C(=O)O)cc3)cnc2n1` [compound 7, N^α-(4-Amino-4-deoxypteroyl)-N^δ-hemiphthaloyl-L-ornithine], the “Stability when dissolved in dilute ammonium hydroxide” value (dilute ammonium hydroxide solution) is reported as “relatively stable”.
For the compound `N.N.Nc1nc(N)c2nc(CNc3ccc(C(=O)N[C@@H](CCCNC(=O)c4ccccc4C(=O)O)C(=O)O)cc3)cnc2n1` [compound 8, N^α-(4-Amino-4-deoxypteroyl)N^δ-hemiphthaloyl-L-ornithine ammonium salt], for the setting “lyophilization of dilute ammonium hydroxide solution”, the “Product decomposition on lyophilization of the ammonium hydroxide solution” value was “minimal”.
